Values quoted from earlier work as cited in patent publication US8263638B2, “Dosing regimens for ion channel modulating compounds” (priority 2004, dated 2012).
Read-outs that look alike come from different tables or passages of the source.

System: rabbit Purkinje fibers
Settings: cited from earlier work

| Structure (SMILES) | increase of APD90 (10 μM, rabbit) [%] | increase of APD90 (10 nM, rabbit Purkinje fibers, BCL=1000 ms) [%] |
| --- | --- | --- |
| C=C[C@H]1C[N@@]2CC[C@H]1C[C@@H]2[C@@H](O)c1ccnc2ccc(OC)cc12 [quinidine] | 93 |  |
| CN(CCOc1ccc(NS(C)(=O)=O)cc1)CCc1ccc(NS(C)(=O)=O)cc1 [dofetilide] |  | 83 |
